The target in this assay is Prostaglandin G/H synthase 2 (Homo sapiens) (UniProt P35354). As to the kind of experiment: Inhibition of recombinant human COX2 expressed in baculovirus infected Sf21 cells using arachidonic acid as substrate preincubated for 5 mins followed by substrate addition and measured after 5 mins by UV-visible spectrophotometric method.
Prostaglandin G/H synthase 2 (Homo sapiens), sequence (P35354 whole entry, looked up): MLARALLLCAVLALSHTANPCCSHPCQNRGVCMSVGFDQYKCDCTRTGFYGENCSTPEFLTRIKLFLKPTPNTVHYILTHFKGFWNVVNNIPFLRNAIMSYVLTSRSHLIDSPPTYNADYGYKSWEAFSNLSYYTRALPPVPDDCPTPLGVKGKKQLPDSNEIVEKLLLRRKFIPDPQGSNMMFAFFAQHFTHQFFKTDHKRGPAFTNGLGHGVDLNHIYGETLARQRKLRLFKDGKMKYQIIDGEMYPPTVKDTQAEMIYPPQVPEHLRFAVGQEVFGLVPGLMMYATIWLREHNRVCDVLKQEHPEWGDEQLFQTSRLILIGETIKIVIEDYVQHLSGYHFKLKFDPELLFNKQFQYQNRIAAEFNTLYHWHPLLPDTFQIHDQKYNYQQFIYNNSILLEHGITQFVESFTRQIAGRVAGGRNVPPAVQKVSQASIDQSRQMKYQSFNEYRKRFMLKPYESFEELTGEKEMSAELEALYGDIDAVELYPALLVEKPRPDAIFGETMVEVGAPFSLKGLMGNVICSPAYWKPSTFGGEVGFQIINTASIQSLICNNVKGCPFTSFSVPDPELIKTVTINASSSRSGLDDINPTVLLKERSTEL

For the compound `O=C1CCCCC1C1CC(=O)N(c2ccccc2)C1=O` (centres undefined), the concentration for half-maximal inhibition (IC50) (usually the concentration that inhibits the measured activity by half) was 45.1 µM. Consider `O=C1CCCCC1C1CC(=O)N(Cc2ccccc2)C1=O` (centres undefined), for which the IC50 was 20 µM. For the compound `O=C1CCOCC1C1CC(=O)N(c2ccccc2)C1=O` (centres undefined), the IC50 was found to be 56.6 µM. In the case of `O=C1CCCC1C1CC(=O)N(c2ccccc2)C1=O` (centres undefined), the 50% inhibitory concentration (IC50) was 51.4 µM. `Cc1ccc(C(=O)CC2CC(=O)N(c3ccc(S(N)(=O)=O)cc3)C2=O)cc1` (centres undefined): the IC50 is 0.98 µM.

As for `NS(=O)(=O)c1ccc(N2C(=O)CC(C3CCCCCC3=O)C2=O)cc1` (centres undefined), the IC50 came out at 20.7 µM. Turning to `CC1CCC(=O)C(C2CC(=O)N(Cc3ccccc3)C2=O)C1` (centres undefined), the IC50 amounted to 21.9 µM. For `O=C1CCCCCC1C1CC(=O)N(c2ccccc2)C1=O` (centres undefined) the value was 39.5 µM; for `O=C1CCCCC1C1CC(=O)N(c2ccc(Br)cc2)C1=O` (centres undefined), 113 µM; for `COc1ccc(C(=O)CC2CC(=O)N(c3ccc(S(N)(=O)=O)cc3)C2=O)cc1` (centres undefined), 2.1 µM. With `NS(=O)(=O)c1ccc(N2C(=O)CC(CC(=O)c3ccccc3)C2=O)cc1` (centres undefined), the 50% inhibitory concentration (IC50) stood at 4.23 µM. With `NS(=O)(=O)c1ccc(N2C(=O)CC(CC(=O)c3ccccn3)C2=O)cc1` (centres undefined), the 50% inhibitory concentration (IC50) amounted to 8.94 µM. With `NS(=O)(=O)c1ccc(N2C(=O)CC(CC(=O)c3ccc(Cl)cc3)C2=O)cc1` (centres undefined), the concentration for half-maximal inhibition (IC50) stood at 6.29 µM.

Consider `CC1CCC(=O)C(C2CC(=O)N(c3ccccc3)C2=O)C1` (centres undefined), for which the 50% inhibitory concentration (IC50) amounted to 56.5 µM.

These data come from BindingDB's records for doi:10.1016/j.ejmech.2019.111863 (University of Malakand, 2020).
